The target in the experiment is human recombinant HDAC6 (Homo sapiens (Human), UniProt Q9UBN7). The experiment in a line: HDAC6 enzyme activity inhibition assay (HDAC Fluorimetric Drug Discovery Kit). Format: biochemical. To be noted: for HDAC6 selectivity (fold): HDAC6 versus HDAC1; for IC50: human recombinant HDAC6, same protocol as HDAC1 test. As for the experimental part:
In order to examine the HDAC6 selectivity of the compounds of formula I of the present invention by HDAC1 and HDAC6 enzymatic activity inhibition assays, an experiment was performed using a conventional substance as a control.
HDAC enzyme activity was measured using a HDAC Fluorimetric Drug Discovery Kit (BML-AK511, 516, Enzo Life Science). For the HDAC1 enzyme activity test, human recombinant HDAC1 (BML-SE456) was used as an enzyme source, and Fluor de Lys®-“SIRT1 (BNL-KI177) was used as a substrate. A 5-fold dilution of the compound was seeded into a 96-well plate, and then 0.3 μg of the enzyme and 10 μM of the substrate were added to each well of the plate and allowed to react at 30 for 60 minutes. Then, Fluor de Lys®-Developer II (BML-KI176) was added thereto and allowed to react for 30 minutes, after which the fluorescence value (Ex 360, Em 460) was measured using a multi-plate reader (Flexstation 3, Molecular Device). The HDAC6 enzyme was tested using human recombinant HDAC6 (382180) (Calbiochem) according to the same protocol as the HDAC1 enzyme activity test method. Based on the resulting values, each IC50 value was calculated using GraphPad Prism4.0 program.

As usually defined, the IC50 is the point on the concentration scale where inhibition reaches its midpoint.

Structures can show the parent of a compound that is named as a salt.

human recombinant HDAC6, sequence (Q9UBN7 whole entry): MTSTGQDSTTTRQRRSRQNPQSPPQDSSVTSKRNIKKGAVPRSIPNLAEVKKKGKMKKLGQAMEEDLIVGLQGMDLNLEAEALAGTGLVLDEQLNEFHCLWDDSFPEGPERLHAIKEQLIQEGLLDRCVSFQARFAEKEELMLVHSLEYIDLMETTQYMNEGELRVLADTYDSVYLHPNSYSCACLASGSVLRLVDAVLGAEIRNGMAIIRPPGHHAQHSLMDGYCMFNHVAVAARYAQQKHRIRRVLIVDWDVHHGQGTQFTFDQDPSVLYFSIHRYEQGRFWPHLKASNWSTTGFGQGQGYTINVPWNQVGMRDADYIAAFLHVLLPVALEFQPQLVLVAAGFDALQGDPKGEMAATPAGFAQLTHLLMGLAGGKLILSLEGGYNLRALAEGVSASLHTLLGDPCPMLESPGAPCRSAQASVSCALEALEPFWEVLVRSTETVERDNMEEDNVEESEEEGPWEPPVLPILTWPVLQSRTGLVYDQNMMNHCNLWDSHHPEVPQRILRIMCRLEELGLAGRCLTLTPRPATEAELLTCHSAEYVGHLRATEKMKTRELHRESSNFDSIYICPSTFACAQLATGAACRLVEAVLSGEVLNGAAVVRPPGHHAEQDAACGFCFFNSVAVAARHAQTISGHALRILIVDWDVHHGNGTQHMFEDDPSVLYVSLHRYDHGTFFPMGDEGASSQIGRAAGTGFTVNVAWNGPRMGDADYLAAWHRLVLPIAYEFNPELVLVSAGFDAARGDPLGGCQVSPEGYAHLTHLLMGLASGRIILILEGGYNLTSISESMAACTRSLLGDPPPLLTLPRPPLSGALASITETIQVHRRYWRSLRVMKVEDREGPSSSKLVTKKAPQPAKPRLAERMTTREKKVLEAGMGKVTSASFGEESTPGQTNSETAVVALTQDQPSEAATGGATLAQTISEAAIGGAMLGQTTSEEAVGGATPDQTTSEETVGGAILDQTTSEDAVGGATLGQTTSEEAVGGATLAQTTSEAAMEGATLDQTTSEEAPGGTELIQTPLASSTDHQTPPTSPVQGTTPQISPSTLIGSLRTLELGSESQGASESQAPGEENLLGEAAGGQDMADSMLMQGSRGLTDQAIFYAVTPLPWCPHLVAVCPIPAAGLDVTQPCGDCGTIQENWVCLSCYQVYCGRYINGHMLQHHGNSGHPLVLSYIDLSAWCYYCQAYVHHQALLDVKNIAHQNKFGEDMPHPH

As for `CN1CCN(S(=O)(=O)N(Cc2ccc(-c3nnc(C(F)(F)F)o3)cc2F)c2cccc(F)c2)CC1` [Compound 11312, N-(2-fluoro-4-(5-(trifluoromethyl)-1,3,4-oxadiazol-2-yl)benzyl)-N-(3-fluorophenyl)-4-methylpiperazine-1-sulfonamide], the “HDAC6 selectivity (fold)” value turned out to be 1371 fold and the IC50 was determined as 73 nM.
`Cl.O=S(=O)(N1CCNCC1)N(Cc1ccc(-c2nnc(C(F)F)o2)cc1F)c1cccc(F)c1` [Compound 11313, N-(4-(5-(difluoromethyl)-1,3,4-oxadiazol-2-yl)-2-fluorobenzyl)-N-(3-fluorophenyl)piperazine-1-sulfonamide Hydrochloride]: the “HDAC6 selectivity (fold)” value worked out at 4246 fold and the IC50 worked out at 24 nM.
For `CS(=O)(=O)N1CCN(S(=O)(=O)N(Cc2ccc(-c3nnc(C(F)F)o3)cc2F)c2cccc(F)c2)CC1` [Compound 11314, N-(4-(5-(difluoromethyl)-1,3,4-oxadiazol-2-yl)-2-fluorobenzyl)-N-(3-fluorophenyl)-4-(methylsulfonyl)piperazine-1-sulfonamide], the “HDAC6 selectivity (fold)” value was found to be 3061 fold and the IC50 came to 33 nM.
Turning to `CC(=O)N1CCN(S(=O)(=O)N(Cc2ccc(-c3nnc(C(F)F)o3)cc2F)c2cccc(F)c2)CC1` [Compound 11315, 4-acetyl-N-(4-(5-(difluoromethyl)-1,3,4-oxadiazol-2-yl)-2-fluorobenzyl)-N-(3-fluorophenyl)piperazine-1-sulfonamide], the “HDAC6 selectivity (fold)” value was 3367 fold and the concentration for half-maximal inhibition (IC50) worked out at 30 nM.
Regarding `CN1CCN(S(=O)(=O)N(Cc2ccc(-c3nnc(C(F)F)o3)cc2F)c2cccc(F)c2)CC1` [Compound 11316, N-(4-(5-(difluoromethyl)-1,3,4-oxadiazol-2-yl)-2-fluorobenzyl)-N-(3-fluorophenyl)-4-methylpiperazine-1-sulfonamide], the “HDAC6 selectivity (fold)” value was 4031 fold and the IC50 was 25 nM.
As for `O=S(=O)(N1CCNCC1)N(Cc1ccc(-c2nnc(C(F)F)o2)cc1F)c1cccnc1` [Compound 11317, N-(4-(5-(difluoromethyl)-1,3,4-oxadiazol-2-yl)-2-fluorobenzyl)-N-(pyridin-3-yl)piperazine-1-sulfonamide Dihydrochloride], the “HDAC6 selectivity (fold)” value worked out at 1234 fold and the IC50 turned out to be 81 nM.
For `CC(=O)N1CCN(S(=O)(=O)N(Cc2ccc(-c3nnc(C(F)F)o3)cc2F)c2cccnc2)CC1` [Compound 11318, 4-acetyl-N-(4-(5-(difluoromethyl)-1,3,4-oxadiazol-2-yl)-2-fluorobenzyl)-N-(pyridin-3-yl)piperazine-1-sulfonamide], in that order: 2299 fold and 43 nM.
For `CS(=O)(=O)N1CCN(S(=O)(=O)N(Cc2ccc(-c3nnc(C(F)F)o3)cc2F)c2cccnc2)CC1` [Compound 11319, N-(4-(5-(difluoromethyl)-1,3,4-oxadiazol-2-yl)-2-fluorobenzyl)-4-(methylsulfonyl)-N-(pyridin-3-yl)piperazine-1-sulfonamide], in that order: 1464 fold and 68 nM.
As to `CN1CCN(S(=O)(=O)N(Cc2ccc(-c3nnc(C(F)F)o3)cc2F)c2cccnc2)CC1` [Compound 11320, N-(4-(5-(difluoromethyl)-1,3,4-oxadiazol-2-yl)-2-fluorobenzyl)-4-methyl-N-(pyridin-3-yl)piperazine-1-sulfonamide], the “HDAC6 selectivity (fold)” value was 1829 fold and the IC50 was found to be 55 nM.
For `O=S(=O)(N1CCNCC1)N(Cc1ccc(-c2nnc(C(F)(F)F)o2)cc1F)c1cccnc1` [Compound 11321, N-(2-fluoro-4-(5-(trifluoromethyl)-1,3,4-oxadiazol-2-yl)benzyl)-N-(pyridin-3-yl)piperazine-1-sulfonamide Dihydrochloride], in that order: 2249 fold and 44 nM.

These data come from patent US10464911B2, “1,3,4-oxadiazole sulfamide derivative compounds as histone deacetylase 6 inhibitor, and the pharmaceutical composition comprising the same” (Chong Kun Dang Pharmaceutical Corp., priority 2015, dated 2019).
